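48-hour exposure; five concentrations; linearly interpolated endpoints. GI50 = concentration required for 50% inhibition of growth.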 Activity calls are given as the source filed them. No stated cut-off is given here; in the data, active = GI50 up to about 1.1 µM and inactive = higher.

Test systems include MOLT-4; SK-MEL-5; SNB-19; HT-29; Hs-578T; T47D; ACHN; HCC 2998; UACC-257; PC-3; RXF 393; HCT-116; A549; OVCAR-8; NCI-H460; M14; CAKI-1; EKVX; SW-620.
What all share (assay): NCI tumour cell line growth inhibition, 48 h

Turning to `CC(=O)N1C(c2[nH]c3ccccc3c2-c2ccccc2)CCN1c1ccccc1` (configuration not stated), the GI50 in the assay on MOLT-4, in the assay with SK-MEL-5, in the assay with SNB-19, with HT-29, in the assay on Hs-578T and in the assay on T47D was > 10 µM (inactive) each time. The GI50 in the assay with ACHN is > 10 µM (inactive); in the assay with HCC 2998, > 10 µM (inactive); in the assay with UACC-257, > 10 µM (inactive); with PC-3 it was 8.97 µM (inactive); in the assay on RXF 393, > 10 µM (inactive); in the assay on HCT-116 it was > 10 µM (inactive). The GI50 in the assay with A549, in the assay with OVCAR-8, in the assay on NCI-H460, with M14, with CAKI-1 and in the assay on EKVX was > 10 µM (inactive) throughout. Moreover, the GI50 with SW-620 was > 10 µM (inactive).
`CC(CC[C@@]1(O)OC2C[C@H]3[C@@H]4CC[C@H]5CC(OC6OC(CO)C(OC7OC(CO)C(O)C(OC8OCC(O)C(O)C8O)C7OC7OC(CO)C(O)C(O)C7O)C(O)C6O)[C@H](O)CC5(C)[C@H]4CCC3(C)C2[C@@H]1C)COC1OC(CO)C(O)C(O)C1O` (some centres not stated): the GI50 was 2.45 µM (inactive) with MOLT-4; 6.9 µM (inactive) in the assay with SK-MEL-5; 28.3 µM (inactive) with SNB-19; 11 µM (inactive) in the assay on HT-29; 4.73 µM (inactive) in the assay on Hs-578T; 12.2 µM (inactive) with T47D. Also, the GI50 in the assay with ACHN is 2.09 µM (inactive); in the assay with HCC 2998, 13.8 µM (inactive); with UACC-257, 15.8 µM (inactive); in the assay on PC-3, 10.3 µM (inactive); in the assay on RXF 393, 4.28 µM (inactive); with HCT-116 it was 3.67 µM (inactive). The GI50 is 3.47 µM (inactive) with A549; 9.86 µM (inactive) with OVCAR-8; 2.09 µM (inactive) in the assay on NCI-H460; 25 µM (inactive) with M14; 4.76 µM (inactive) in the assay on CAKI-1; 2.38 µM (inactive) in the assay on EKVX. Moreover, the GI50 in the assay with SW-620 is 11.6 µM (inactive).
Turning to `Clc1ccc(CNc2nc(Cl)c3nc[nH]c3n2)cc1Cl`, the GI50 is 33.6 µM (inactive) in the assay with MOLT-4; 16.7 µM (inactive) in the assay on SK-MEL-5; 34 µM (inactive) with SNB-19; 26.4 µM (inactive) in the assay on HT-29; 21 µM (inactive) in the assay on Hs-578T; 6.71 µM (inactive) in the assay on T47D. The GI50 with ACHN is 31.2 µM (inactive); in the assay with HCC 2998 it was 19.8 µM (inactive); in the assay with UACC-257, 13.5 µM (inactive); with PC-3, 21.6 µM (inactive); in the assay on RXF 393, 30.9 µM (inactive); in the assay on HCT-116, 15.9 µM (inactive). Also, the GI50 with A549 was 23.1 µM (inactive); in the assay on OVCAR-8, 17.9 µM (inactive); with NCI-H460 it was 28.2 µM (inactive); in the assay with M14, 20.8 µM (inactive); with CAKI-1, 23.2 µM (inactive); in the assay with EKVX, 25.2 µM (inactive).
Take `CC1OC(OC2C(O)COC(OC3C(C)OC(OC4C(OC(=O)[C@]56CCC(C)(C)C[C@@H]5C5=CCC7[C@@]8(C)C[C@H](O)[C@H](OC9OC(CO)C(O)C(OC%10OC(CO)C(O)C(O)C%10O)C9O)[C@@](C)(CO)[C@@H]8CC[C@@]7(C)[C@]5(C)CC6)OCC(O)C4O)C(O)C3OC3OCC(O)C(O)C3O)C2O)C(O)C(O)C1O` (some centres not stated): the GI50 with MOLT-4 is 16.6 µM (inactive); with SK-MEL-5 it was 4.45 µM (inactive); in the assay with SNB-19, 7.67 µM (inactive); in the assay with HT-29 it was 18.7 µM (inactive); in the assay with Hs-578T, 15.2 µM (inactive); in the assay with T47D, 3.96 µM (inactive). Also, the GI50 in the assay with ACHN was 5.41 µM (inactive); in the assay on HCC 2998 it was 2.07 µM (inactive); in the assay on UACC-257 it was 4.63 µM (inactive); in the assay on PC-3, 4.36 µM (inactive); in the assay on RXF 393 it was 5.55 µM (inactive); in the assay with HCT-116, 11.3 µM (inactive). Further, the GI50 is 2.11 µM (inactive) in the assay with A549; 13.1 µM (inactive) with OVCAR-8; 17.4 µM (inactive) in the assay with NCI-H460; 1.87 µM (inactive) in the assay on M14; 4.39 µM (inactive) in the assay with CAKI-1; 7.05 µM (inactive) in the assay on EKVX. Moreover, the GI50 in the assay with SW-620 was 6.35 µM (inactive).
For the molecule `O=c1[nH]nc(-c2ccccc2)c2[nH]c3c(c12)CCCc1ccccc1-3`, the GI50 is 10.9 µM (inactive) in the assay on MOLT-4; 12.4 µM (inactive) in the assay with SK-MEL-5; 10.7 µM (inactive) with SNB-19; 11.3 µM (inactive) with HT-29; 17 µM (inactive) with Hs-578T; 8.97 µM (inactive) with T47D. The GI50 is 11.9 µM (inactive) in the assay on ACHN; 14.8 µM (inactive) in the assay with HCC 2998; 18.7 µM (inactive) with UACC-257; 14.9 µM (inactive) in the assay with PC-3; 15.6 µM (inactive) in the assay with RXF 393; 13.2 µM (inactive) in the assay on HCT-116. Besides, the GI50 with A549 was 9.46 µM (inactive); with OVCAR-8, 17.4 µM (inactive); with NCI-H460, 16 µM (inactive); with M14, 16.8 µM (inactive); in the assay with CAKI-1 it was 22 µM (inactive); in the assay on EKVX, 10.6 µM (inactive). Also, in the assay on SW-620, the GI50 was 19.1 µM (inactive).
For the molecule `CCCCCCCCC/C=C1/CC(CO)(COC(=O)C2CCCCC2)OC1=O` (configuration not stated), the GI50 with MOLT-4 is > 100 µM (inactive); in the assay with SK-MEL-5, 43.2 µM (inactive); in the assay on SNB-19 it was > 100 µM (inactive); in the assay on HT-29, > 100 µM (inactive); in the assay on Hs-578T, 62.8 µM (inactive); with T47D, > 100 µM (inactive). Also, the GI50 with ACHN, with HCC 2998, in the assay on UACC-257, with PC-3, in the assay on RXF 393 and in the assay with HCT-116 was > 100 µM (inactive) throughout. Besides, the GI50 in the assay on A549, in the assay on OVCAR-8, in the assay with NCI-H460, with M14, in the assay with CAKI-1 and in the assay with EKVX was > 100 µM (inactive) throughout. Besides, the GI50 with SW-620 was > 100 µM (inactive).
Turning to `CC(CN(C)C)C(=O)/C=C/c1ccc(Cl)c(Cl)c1` (configuration not stated), the GI50 in the assay on MOLT-4 is 2.67 µM (inactive); in the assay with SK-MEL-5, 1.6 µM (inactive); in the assay on SNB-19, 5.43 µM (inactive); in the assay with HT-29 it was 1.67 µM (inactive); in the assay with Hs-578T it was 3.69 µM (inactive); in the assay with T47D it was 24.7 µM (inactive). Also, the GI50 was 1.87 µM (inactive) in the assay on ACHN; 1.94 µM (inactive) in the assay on HCC 2998; 2.38 µM (inactive) in the assay with UACC-257; 1.04 µM (active) in the assay on PC-3; 12.6 µM (inactive) in the assay on RXF 393; 1.56 µM (inactive) with HCT-116. Also, the GI50 in the assay with A549 was 3.33 µM (inactive); with OVCAR-8, 1.52 µM (inactive); in the assay with NCI-H460 it was 2.24 µM (inactive); in the assay on M14, 2.09 µM (inactive); in the assay with CAKI-1, 2 µM (inactive); with EKVX, 1.7 µM (inactive). The GI50 in the assay with SW-620 was 2.07 µM (inactive).
